Patent US6613718B2, “Aryl ether derivatives and processes for their preparation and herbicidal and desiccant compositions containing them” (Ishihara Sangyo Kaisha, Ltd., priority 2001, dated 2003)

What was measured:
Assay type in all cases: in vivo
[1] = system: barnyardgrass (Echinochloa crus-galli, ECHCG); assay: Pre-emerge greenhouse herbicide activity screening, phytotoxicity rating; conditions: 14 days after application
Method in brief: (§1)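 Pre-emerge: seeds sown 1 day before spray; acetone solutions, 15–1000 g ai/ha, track sprayer; soil watered after application, then bottom-watered. Post-emerge: plants at 2-3 leaf stage (sown 8-21 days prior), 0.25% v/v non-ionic surfactant added, bottom-watered only. Rated 0-100 at 14 DAA.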

[2] = system: common ragweed (Ambrosia artemisiifolia L., AMBEL); assay: as above; conditions: 14 days after application
Method in brief: as §1

[3] = system: green foxtail (Setaria viridis, SETVI); assay: as above; conditions: 14 days after application
Method in brief: as §1

[4] = system: ivyleaf morningglory (Ipomoea hederacea, IPOHE); assay: as above; conditions: 14 days after application
Method in brief: as §1

[5] = system: johnsongrass (Sorghum halepense, SORHA); assay: as above; conditions: 14 days after application
Method in brief: as §1

[6] = system: lambsquarters (Chenopodium album, CHEAL); assay: as above; conditions: 14 days after application
Method in brief: as §1

[7] = system: large crabgrass (Digitaria sanguinalis, DIGSA); assay: as above; conditions: 14 days after application
Method in brief: as §1

[8] = system: redroot pigweed (Amaranthus retroflexus, AMARE); assay: as above; conditions: 14 days after application
Method in brief: as §1

[9] = system: sicklepod (Cassia obtusifolia, CASOB); assay: as above; conditions: 14 days after application
Method in brief: as §1

[10] = system: velvetleaf (Abutilon theophrasti, ABUTH); assay: as above; conditions: 14 days after application
Method in brief: as §1

[11] = system: field corn (Zea mays L., var. Dekalb 535, CORN); assay: Pre-emerge greenhouse screening, crop safety (phytotoxicity rating); conditions: 14 days after application
Method in brief: as §1

[12] = system: soybean (Glycine max L., var. Pella 86, SOY); assay: as above; conditions: 14 days after application
Method in brief: as §1

[13] = system: upland rice (Oryza sp., var.Tebonnet, RICE); assay: as above; conditions: 14 days after application
Method in brief: as §1

[14] = system: barnyardgrass (Echinochloa crus-galli, ECHCG); assay: Post-emerge greenhouse herbicide activity screening, phytotoxicity rating; conditions: 14 days after application
Method in brief: as §1

[15] = system: common ragweed (Ambrosia artemisiifolia L., AMBEL); assay: as above
Method in brief: as §1

[16] = system: green foxtail (Setaria viridis, SETVI); assay: as above
Method in brief: as §1

[17] = system: ivyleaf morningglory (Ipomoea hederacea, IPOHE); assay: as above; conditions: 14 days after application
Method in brief: as §1

[18] = system: johnsongrass (Sorghum halepense, SORHA); assay: as above; conditions: 14 days after application
Method in brief: as §1

[19] = system: lambsquarters (Chenopodium album, CHEAL); assay: as above
Method in brief: as §1

[20] = system: large crabgrass (Digitaria sanguinalis, DIGSA); assay: as above; conditions: 14 days after application
Method in brief: as §1

[21] = system: redroot pigweed (Amaranthus retroflexus, AMARE); assay: as above
Method in brief: as §1

[22] = system: sicklepod (Cassia obtusifolia, CASOB); assay: as above
Method in brief: as §1

[23] = system: velvetleaf (Abutilon theophrasti, ABUTH); assay: as above; conditions: 14 days after application
Method in brief: as §1

[24] = system: field corn (Zea mays L., var. Dekalb 535, CORN); assay: Post-emerge greenhouse screening, crop safety / corn selectivity (phytotoxicity rating); conditions: 14 days after application
Method in brief: as §1

[25] = system: soybean (Glycine max L., var. Pella 86, SOY); assay: Post-emerge greenhouse screening, crop safety (phytotoxicity rating); conditions: 14 days after application
Method in brief: as §1

[26] = system: upland rice (Oryza sp., var.Tebonnet, RICE); assay: as above; conditions: 14 days after application
Method in brief: as §1

[27] = 125 g ai/ha, 14 days after application
[28] = 250 g ai/ha, 14 days after application

Cn1c(=S)n(C)c(=O)n(-c2cc(Oc3ncccn3)c(Cl)cc2F)c1=O [Compound 2-1, 3-[4-Chloro-2-fluoro-5-(2-pyrimidinyloxy)phenyl]-5,6-dihydro-1,5-dimethyl-6-thioxo-1,3,5-triazine-2,4(1H,3H)-dione]
ECHCG phytotoxicity rating (0-100 scale) ([1]; 125 g ai/ha): 100
ECHCG phytotoxicity rating (0-100 scale) ([1]; 250 g ai/ha): 100
AMBEL phytotoxicity rating (0-100 scale) ([2]; 125 g ai/ha): 100
AMBEL phytotoxicity rating (0-100 scale) ([2]; 250 g ai/ha): 100
SETVI phytotoxicity rating (0-100 scale) ([3]; 125 g ai/ha): 100
SETVI phytotoxicity rating (0-100 scale) ([3]; 250 g ai/ha): 100
IPOHE phytotoxicity rating (0-100 scale) ([4]; 125 g ai/ha): 100
IPOHE phytotoxicity rating (0-100 scale) ([4]; 250 g ai/ha): 100
SORHA phytotoxicity rating (0-100 scale) ([5]; 125 g ai/ha): 100
SORHA phytotoxicity rating (0-100 scale) ([5]; 250 g ai/ha): 100
CHEAL phytotoxicity rating (0-100 scale) ([6]; 125 g ai/ha): 100
CHEAL phytotoxicity rating (0-100 scale) ([6]; 250 g ai/ha): 100
DIGSA phytotoxicity rating (0-100 scale) ([7]; 125 g ai/ha): 100
DIGSA phytotoxicity rating (0-100 scale) ([7]; 250 g ai/ha): 100
AMARE phytotoxicity rating (0-100 scale) ([8]; 125 g ai/ha): 100
AMARE phytotoxicity rating (0-100 scale) ([8]; 250 g ai/ha): 100
CASOB phytotoxicity rating (0-100 scale) ([9]; 125 g ai/ha): 100
CASOB phytotoxicity rating (0-100 scale) ([9]; 250 g ai/ha): 100
ABUTH phytotoxicity rating (0-100 scale) ([10]; 125 g ai/ha): 100
ABUTH phytotoxicity rating (0-100 scale) ([10]; 250 g ai/ha): 100
CORN crop damage, phytotoxicity rating (0-100 scale) ([11]; 125 g ai/ha): 50
CORN crop damage, phytotoxicity rating (0-100 scale) ([11]; 250 g ai/ha): 65
SOY crop damage, phytotoxicity rating (0-100 scale) ([12]; 125 g ai/ha): 90
SOY crop damage, phytotoxicity rating (0-100 scale) ([12]; 250 g ai/ha): 100
RICE crop damage, phytotoxicity rating (0-100 scale) ([13]; 125 g ai/ha): 99
RICE crop damage, phytotoxicity rating (0-100 scale) ([13]; 250 g ai/ha): 99
ECHCG phytotoxicity rating (0-100 scale) ([14]; 125 g ai/ha): 50
ECHCG phytotoxicity rating (0-100 scale) ([14]; 250 g ai/ha): 80
AMBEL phytotoxicity rating (0-100 scale) ([15]; 31.3 g ai/ha): 50
AMBEL phytotoxicity rating (0-100 scale) ([15]; 62.5 g ai/ha): 50
AMBEL phytotoxicity rating (0-100 scale) [15, 27]: 60
AMBEL phytotoxicity rating (0-100 scale) [15, 28]: 65
SETVI phytotoxicity rating (0-100 scale) ([16]; 31.3 g ai/ha): 0
SETVI phytotoxicity rating (0-100 scale) ([16]; 62.5 g ai/ha): 60
SETVI phytotoxicity rating (0-100 scale) [16, 27]: 70
SETVI phytotoxicity rating (0-100 scale) [16, 28]: 80
IPOHE phytotoxicity rating (0-100 scale) ([17]; 125 g ai/ha): 80
IPOHE phytotoxicity rating (0-100 scale) ([17]; 250 g ai/ha): 99
SORHA phytotoxicity rating (0-100 scale) ([18]; 125 g ai/ha): 60
SORHA phytotoxicity rating (0-100 scale) ([18]; 250 g ai/ha): 70
CHEAL phytotoxicity rating (0-100 scale) ([19]; 31.3 g ai/ha): 100
CHEAL phytotoxicity rating (0-100 scale) ([19]; 62.5 g ai/ha): 100
CHEAL phytotoxicity rating (0-100 scale) [19, 27]: 100
CHEAL phytotoxicity rating (0-100 scale) [19, 28]: 100
DIGSA phytotoxicity rating (0-100 scale) ([20]; 125 g ai/ha): 55
DIGSA phytotoxicity rating (0-100 scale) ([20]; 250 g ai/ha): 55
AMARE phytotoxicity rating (0-100 scale) ([21]; 31.3 g ai/ha): 100
AMARE phytotoxicity rating (0-100 scale) ([21]; 62.5 g ai/ha): 100
AMARE phytotoxicity rating (0-100 scale) [21, 27]: 100
AMARE phytotoxicity rating (0-100 scale) [21, 28]: 100
CASOB phytotoxicity rating (0-100 scale) ([22]; 31.3 g ai/ha): 60
CASOB phytotoxicity rating (0-100 scale) ([22]; 62.5 g ai/ha): 60
CASOB phytotoxicity rating (0-100 scale) [22, 27]: 65
CASOB phytotoxicity rating (0-100 scale) [22, 28]: 75
ABUTH phytotoxicity rating (0-100 scale) ([23]; 125 g ai/ha): 100
ABUTH phytotoxicity rating (0-100 scale) ([23]; 250 g ai/ha): 100
CORN crop damage, phytotoxicity rating (0-100 scale) ([24]; 125 g ai/ha): 0
CORN crop damage, phytotoxicity rating (0-100 scale) ([24]; 250 g ai/ha): 5
SOY crop damage, phytotoxicity rating (0-100 scale) ([25]; 125 g ai/ha): 50
SOY crop damage, phytotoxicity rating (0-100 scale) ([25]; 250 g ai/ha): 65
RICE crop damage, phytotoxicity rating (0-100 scale) ([26]; 125 g ai/ha): 15
RICE crop damage, phytotoxicity rating (0-100 scale) ([26]; 250 g ai/ha): 40
